According to patent US20260125378A2, “Heterocyclic Compounds” (BeOne Medicines I GmbH, priority 2023, published 2026):

What was measured:
[1] = biological target: T1, Full length DGKα (D21-10BG, SignalChem) (Homo sapiens, UniProt P23743); assay: Biochemical DGK IC50 assay (ADP-Glo, lipid micelle substrate), DGKα; conditions: 1 hour preincubation, 1 hour reaction, room temperature
T1 construct: Full length DGKα (D21-10BG, SignalChem); purchased SignalChem D21-10BG
Summary of the method: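 Full-length human DGKα with DAG/PS lipid micelle substrate (in octyl glucoside buffer), reacted 1 h at room temperature in 50 mM HEPES, 10 mM MgCl2, 0.01 mM CaCl2, 0.1 mM Na3VO4, 0.01% BSA, 0.005% Tween-20. ADP formed read by ADP-Glo luminescence; IC50 from inhibition across increasing compound concentrations.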

[2] = biological target: T2, Full length DGKζ (in-house protein M1-V929) (Homo sapiens, UniProt Q13574); assay: Biochemical DGK IC50 assay (ADP-Glo, lipid micelle substrate), DGKζ; conditions: 1 hour preincubation, 1 hour reaction, room temperature
T2 construct: His (N); TEV site (N); made in house; host or cells: Sf9 insect cells (Bac-to-Bac baculovirus)
Summary of the method: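 Full-length human DGKζ (M1-V929, His-TEV tagged, Sf9 baculovirus-expressed) with DAG/PS lipid micelle substrate in octyl glucoside, at room temperature in 50 mM HEPES, 10 mM MgCl2, 0.01 mM CaCl2 buffer.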

T2 sequence (Q13574 1-929 isoform Q13574-4): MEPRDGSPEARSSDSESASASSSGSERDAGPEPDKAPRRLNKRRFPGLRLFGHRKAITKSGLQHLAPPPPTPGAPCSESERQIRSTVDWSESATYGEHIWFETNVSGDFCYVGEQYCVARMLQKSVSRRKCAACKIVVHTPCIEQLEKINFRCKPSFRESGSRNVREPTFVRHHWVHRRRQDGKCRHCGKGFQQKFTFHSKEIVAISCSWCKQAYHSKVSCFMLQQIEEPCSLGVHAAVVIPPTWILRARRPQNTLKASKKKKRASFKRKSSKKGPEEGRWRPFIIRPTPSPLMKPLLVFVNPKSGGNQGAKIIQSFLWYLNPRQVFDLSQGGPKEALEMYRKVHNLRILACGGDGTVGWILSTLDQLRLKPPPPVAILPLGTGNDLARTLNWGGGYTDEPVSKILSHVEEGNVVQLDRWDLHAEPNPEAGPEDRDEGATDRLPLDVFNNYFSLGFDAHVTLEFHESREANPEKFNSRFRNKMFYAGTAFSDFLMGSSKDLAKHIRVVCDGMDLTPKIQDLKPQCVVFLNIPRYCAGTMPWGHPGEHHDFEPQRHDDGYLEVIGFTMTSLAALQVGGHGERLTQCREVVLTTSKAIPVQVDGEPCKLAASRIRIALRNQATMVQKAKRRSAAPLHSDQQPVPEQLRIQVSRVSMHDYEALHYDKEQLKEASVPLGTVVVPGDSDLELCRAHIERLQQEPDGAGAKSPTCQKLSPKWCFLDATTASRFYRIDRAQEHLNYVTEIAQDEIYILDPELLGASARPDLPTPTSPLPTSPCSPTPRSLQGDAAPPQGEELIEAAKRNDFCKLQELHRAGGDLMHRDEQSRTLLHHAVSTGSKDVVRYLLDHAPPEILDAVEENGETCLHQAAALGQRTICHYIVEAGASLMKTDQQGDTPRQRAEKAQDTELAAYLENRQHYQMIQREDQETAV
T1 sequence (P23743 whole entry): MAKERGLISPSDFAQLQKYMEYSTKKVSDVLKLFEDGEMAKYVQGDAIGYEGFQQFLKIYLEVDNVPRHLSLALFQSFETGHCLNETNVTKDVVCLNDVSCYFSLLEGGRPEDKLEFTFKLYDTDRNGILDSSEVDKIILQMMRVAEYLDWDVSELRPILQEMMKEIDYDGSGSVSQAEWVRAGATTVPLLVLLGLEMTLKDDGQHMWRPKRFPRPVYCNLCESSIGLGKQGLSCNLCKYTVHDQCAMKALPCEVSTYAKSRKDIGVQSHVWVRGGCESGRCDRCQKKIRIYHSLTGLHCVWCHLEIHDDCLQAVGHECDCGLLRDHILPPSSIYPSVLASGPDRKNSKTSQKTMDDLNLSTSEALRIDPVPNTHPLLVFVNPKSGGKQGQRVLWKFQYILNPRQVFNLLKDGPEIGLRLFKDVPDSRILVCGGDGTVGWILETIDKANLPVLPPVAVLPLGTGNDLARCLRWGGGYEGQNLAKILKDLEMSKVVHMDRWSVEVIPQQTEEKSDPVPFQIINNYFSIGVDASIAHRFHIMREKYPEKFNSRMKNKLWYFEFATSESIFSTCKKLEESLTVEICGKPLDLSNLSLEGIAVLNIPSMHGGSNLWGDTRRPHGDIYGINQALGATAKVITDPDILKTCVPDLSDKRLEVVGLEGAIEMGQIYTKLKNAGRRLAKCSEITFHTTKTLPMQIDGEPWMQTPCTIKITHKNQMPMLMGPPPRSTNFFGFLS

Structure (SMILES) | IC50 [1] | IC50 [2]
CC(c1ccc(F)cc1OC(C)(F)F)N1C[C@H](C)N(c2nc(=O)n(C)c3c2nc(CC#N)n3C)C[C@H]1C (stereo partly drawn) [Compound A31, 2-(6-((2S,5R)-4-(1-(2-(1,1-difluoroethoxy)-4-fluorophenyl)ethyl)-2,5-dimethylpiperazin-1-yl)-3,9-dimethyl-2-oxo-3,9-dihydro-2H-purin-8-yl)acetonitrile] | 110 µM | 0.004 µM
CC(c1ccc2c(c1)OC(F)(F)C(F)(F)O2)N1C[C@H](C)N(c2nc(=O)n(C)c3c2nc(CC#N)n3C)C[C@H]1C (mixture of isomers) [Compound A79, 2-(6-((2S,5R)-2,5-dimethyl-4-(1-(2,2,3,3-tetrafluoro-2,3-dihydrobenzo[b][1,4]dioxin-6-yl)ethyl)piperazin-1-yl)-3,9-dimethyl-2-oxo-3,9-dihydro-2H-purin-8-yl)acetonitrile] | 16.4 µM | 0.016 µM
CC(c1ccc2c(c1)OC(F)(F)C(F)(F)O2)N1C[C@H](C)N(c2nc(=O)n(C)c3c2nc(CC#N)n3C)C[C@H]1C (single isomer, unassigned) [Compound A79a] | 7.28 µM | 0.038 µM
CCn1c(=O)nc(N2C[C@@H](C)N(C(C)c3ccc4ncc(C)nc4c3)C[C@@H]2C)c2nc(CC#N)n(C)c21 (single isomer, unassigned) [Compound A53b] | > 150 µM | 0.662 µM
CCn1c(CC#N)nc2c(N3C[C@@H](C)N(C(C)c4ccc(F)cc4C(F)(F)F)C[C@@H]3C)nc(=O)n(C)c21 (single isomer, unassigned) [Compound A35a] | > 150 µM | 2.76 µM
CC(c1ccc(F)cc1C(F)(F)F)N1C[C@H](C)N(c2cc(=O)n(C)c3[nH]c(CC#N)nc23)C[C@H]1C (single isomer, unassigned) [Compound A9a] | > 10 µM | 8.59 µM
CC(c1ccc2nccnc2c1)N1C[C@H](C)N(c2cc(=O)n(C)c3c2nc(CC#N)n3C)C[C@H]1C (single isomer, unassigned) [Compound A1a] | 14.9 µM | 0.009 µM
COC[C@H]1CN(C(C)c2ccc3ncc(C)nc3c2)[C@H](C)CN1c1nc(=O)n(C)c2c1nc(CC#N)n2C (single isomer, unassigned) [Compound A13a] | > 150 µM | 5.06 µM
CC[C@@H]1CN(c2nc(=O)n(C)c3c2nc(CC#N)n3C)[C@@H](C)CN1C(C)c1ccc2c(c1)OC(C)(C)CO2 (single isomer, unassigned) [Compound A63a] | 10.3 µM | 0.002 µM
CCn1c(CC#N)nc2c(N3C[C@@H](C)N(C(C)c4cc5c(cn4)OCC(C)(C)O5)C[C@@H]3C)nc(=O)n(C)c21 (stereo partly drawn) [Compound A75, 2-(6-((2S,5R)-4-(1-(2,2-dimethyl-2,3-dihydro-[1,4]dioxino[2,3-c]pyridin-7-yl)ethyl)-2,5-dimethylpiperazin-1-yl)-9-ethyl-3-methyl-2-oxo-3,9-dihydro-2H-purin-8-yl)acetonitrile] | > 150 µM | 0.253 µM
COc1cc(F)ccc1C(C)N1C[C@H](C)N(c2c(F)c(=O)n(C)c3c2nc(CC#N)n3C)C[C@H]1C (stereo partly drawn) [Compound A16, 2-(6-fluoro-7-((2S,5R)-4-(1-(4-fluoro-2-methoxyphenyl)ethyl)-2,5-dimethylpiperazin-1-yl)-3,4-dimethyl-5-oxo-4,5-dihydro-3H-imidazo[4,5-b]pyridin-2-yl)acetonitrile] | 58.2 µM | 0.024 µM

Other lines, results leading:

IC50 [1] | IC50 [2] | Structure (SMILES)
> 150 µM | 3.9 µM | CCn1c(CC#N)nc2c(N3C[C@@H](C)N(C(C)c4ccnc(C(=O)NC)c4)C[C@@H]3C)nc(=O)n(C)c21 (stereo partly drawn) [Compound A130, 4-(1-((2R,5S)-4-(8-(cyanomethyl)-9-ethyl-3-methyl-2-oxo-3,9-dihydro-2H-purin-6-yl)-2,5-dimethylpiperazin-1-yl)ethyl)-N-methylpicolinamide]
125 µM | 0.031 µM | CC(c1cc(F)c2c(n1)OC(C)(C)CO2)N1C[C@H](C)N(c2nc(=O)n(C)c3c2nc(CC#N)n3C)C[C@H]1C (stereo partly drawn) [Compound A164, 2-(6-((2S,5R)-4-(1-(8-fluoro-3,3-dimethyl-2,3-dihydro-[1,4]dioxino[2,3-b]pyridin-6-yl)ethyl)-2,5-dimethylpiperazin-1-yl)-3,9-dimethyl-2-oxo-3,9-dihydro-2H-purin-8-yl)acetonitrile]
> 150 µM | 0.334 µM | CCn1c(CC#N)nc2c(N3C[C@@H](C)N(C(C)c4ccc5c(n4)OC(C)CO5)C[C@@H]3C)nc(=O)n(C)c21 (stereo partly drawn) [Compound A89, 2-(6-((2S,5R)-2,5-dimethyl-4-(1-(3-methyl-2,3-dihydro-[1,4]dioxino[2,3-b]pyridin-6-yl)ethyl)piperazin-1-yl)-9-ethyl-3-methyl-2-oxo-3,9-dihydro-2H-purin-8-yl)acetonitrile]
> 150 µM | > 10 µM | CCn1c(CC#N)nc2c(N3C[C@@H](C)N(C(C)c4ccc(=O)n(C)c4)C[C@@H]3C)nc(=O)n(C)c21 (stereo partly drawn) [Compound A106, 2-(6-((2S,5R)-2,5-dimethyl-4-(1-(1-methyl-6-oxo-1,6-dihydropyridin-3-yl)ethyl)piperazin-1-yl)-9-ethyl-3-methyl-2-oxo-3,9-dihydro-2H-purin-8-yl)acetonitrile]
92.4 µM | 0.015 µM | CCn1c(CC#N)nc2c(N3C[C@@H](C)N(C(C)c4ccc5c(c4)C(=O)N(C(C)C)C5=O)C[C@@H]3C)nc(=O)n(C)c21 (stereo partly drawn) [Compound A178, 2-(9-ethyl-6-((2S,5R)-4-(1-(2-isopropyl-1,3-dioxoisoindolin-5-yl)ethyl)-2,5-dimethylpiperazin-1-yl)-3-methyl-2-oxo-3,9-dihydro-2H-purin-8-yl)acetonitrile]
55.7 µM | 0.346 µM | CCn1c(CC#N)nc2c(N3C[C@@H](C)N(C(C)c4cc5c(cc4F)OCC(C)(C)O5)C[C@@H]3C)nc(=O)n(C)c21 (single isomer, unassigned) [Compound A157b]
14.1 µM | 0.006 µM | CCn1c(CC#N)nc2c(N3C[C@@H](C)N(C(C)c4cc5c(cc4F)OC(C)(C)CO5)C[C@@H]3C)nc(=O)n(C)c21 (single isomer, unassigned) [Compound A156b]
> 150 µM | 0.019 µM | CCn1c(CC#N)nc2c(N3C[C@@H](C)N(C(C)c4ccc(C)c(C(F)(F)F)c4)C[C@@H]3C)nc(=O)n(C)c21 (stereo partly drawn) [Compound A115, 2-(6-((2S,5R)-2,5-dimethyl-4-(1-(4-methyl-3-(trifluoromethyl)phenyl)ethyl)piperazin-1-yl)-9-ethyl-3-methyl-2-oxo-3,9-dihydro-2H-purin-8-yl)acetonitrile]
74.1 µM | 0.06 µM | CCn1c(CC#N)nc2c(N3C[C@@H](C)N(C(C)c4ccnc(-c5ccccc5)c4)C[C@@H]3C)nc(=O)n(C)c21 (stereo partly drawn) [Compound A144, 2-(6-((2S,5R)-2,5-dimethyl-4-(1-(2-phenylpyridin-4-yl)ethyl)piperazin-1-yl)-9-ethyl-3-methyl-2-oxo-3,9-dihydro-2H-purin-8-yl)acetonitrile]
50.5 µM | 0.042 µM | CCc1nc2cc(C(C)N3C[C@H](C)N(c4nc(=O)n(C)c5c4nc(CC#N)n5CC)C[C@H]3C)ccc2s1 (mixture of isomers) [Compound A95, 2-(9-ethyl-6-((2S,5R)-4-(1-(2-ethylbenzo[d]thiazol-5-yl)ethyl)-2,5-dimethylpiperazin-1-yl)-3-methyl-2-oxo-3,9-dihydro-2H-purin-8-yl)acetonitrile]
46.5 µM | 0.536 µM | CCn1c(CC#N)nc2c(N3C[C@@H](C)N(C(C)c4ccc5c(c4)OC(F)(F)O5)C[C@@H]3C)nc(=O)n(C)c21 (single isomer, unassigned) [Compound A99b]
> 150 µM | 0.067 µM | CC(c1ccc2c(c1)OC(C)(C)CO2)N1C[C@H](C)N(c2nc(=O)n(C)c3c2nc(CC#N)n3C2CC2)C[C@H]1C (stereo partly drawn) [Compound A86, 2-(9-cyclopropyl-6-((2S,5R)-4-(1-(3,3-dimethyl-2,3-dihydrobenzo[b][1,4]dioxin-6-yl)ethyl)-2,5-dimethylpiperazin-1-yl)-3-methyl-2-oxo-3,9-dihydro-2H-purin-8-yl)acetonitrile]
143 µM | 0.156 µM | CCn1c(CC#N)nc2c(N3C[C@@H](C)N(C(C)c4cccc5c4OC(C)(C)O5)C[C@@H]3C)nc(=O)n(C)c21 (stereo partly drawn) [Compound A186, 2-(6-((2S,5R)-4-(1-(2,2-dimethylbenzo[d][1,3]dioxol-4-yl)ethyl)-2,5-dimethylpiperazin-1-yl)-9-ethyl-3-methyl-2-oxo-3,9-dihydro-2H-purin-8-yl)acetonitrile]
108 µM | 0.555 µM | CCc1nc2cc(C(C)N3C[C@H](C)N(c4nc(=O)n(C)c5c4nc(CC#N)n5CC)C[C@H]3C)ccc2s1 (single isomer, unassigned) [Compound A95b]
72.6 µM | 0.168 µM | CCn1c(CC#N)nc2c(N3C[C@@H](C)N(C(C)c4cc(C)c5c(c4)OC(C)(C)O5)C[C@@H]3C)nc(=O)n(C)c21 (stereo partly drawn) [Compound A177, 2-(6-((2S,5R)-2,5-dimethyl-4-(1-(2,2,7-trimethylbenzo[d][1,3]dioxol-5-yl)ethyl)piperazin-1-yl)-9-ethyl-3-methyl-2-oxo-3,9-dihydro-2H-purin-8-yl)acetonitrile]
> 150 µM | 0.407 µM | CC[C@@H]1CN(c2nc(=O)n(C)c3c2nc(CC#N)n3CC)[C@@H](C)CN1C(C)c1ccc2c(n1)OC(C)(C)CO2 (single isomer, unassigned) [Compound A158b]
